The conditions of this data set: for viscosity / mass density: 101.33 kPa, Liquid; for viscosity: Falling or rolling sphere viscometry; for mass density: Vibrating tube method; for surface tension liquid-gas: Pendant drop shape.

The structures appear in SMILES notation. Numbers after ± are expanded uncertainties.

As usually defined, the viscosity is the internal friction of a fluid under shear. One may read the mass density as the mass of a sample divided by its volume. For orientation: surface tension liquid-gas means the work needed to enlarge the surface of a liquid by unit area. Consider `CCCCn1cc[n+](C)c1.N#C[S-]` [1-butyl-3-methylimidazolium thiocyanate], for which the viscosity is recorded as 76.08 ± 2 mPa·s (293.15 K); 59.81 ± 1.4 mPa·s (298.15 K); 47.84 ± 1.1 mPa·s (303.15 K); 32.2 ± 0.77 mPa·s (313.15 K); 22.97 ± 0.54 mPa·s (323.15 K); 17.12 ± 0.4 mPa·s (333.15 K). Further, the viscosity is, setting by setting: (343.15 K) 13.2 ± 0.31 mPa·s; (353.15 K) 10.5 ± 0.25 mPa·s. The mass density (293.15 K) worked out at 1073.99 ± 0.99 kg/m3; the mass density (298.15 K) is on record as 1071.04 ± 0.98 kg/m3; the mass density (303.15 K) was found to be 1068.08 ± 0.98 kg/m3; the mass density (313.15 K) was 1062.21 ± 0.97 kg/m3; the mass density (323.15 K) was 1056.39 ± 0.95 kg/m3; the mass density (333.15 K) is given as 1050.61 ± 0.94 kg/m3. In addition, the mass density (343.15 K) is given as 1044.87 ± 0.93 kg/m3 and the mass density (353.15 K) came to 1039.17 ± 0.92 kg/m3. In addition, the surface tension liquid-gas (298.15 K) turned out to be 47 ± 0.7 mN/m, the surface tension liquid-gas (303.15 K) amounted to 46.6 ± 0.7 mN/m, the surface tension liquid-gas (313.15 K) was 45.7 ± 0.7 mN/m and the surface tension liquid-gas (323.15 K) was found to be 44.8 ± 0.7 mN/m.
Consider `CCn1cc[n+](C)c1.N#C[S-]` [1-ethyl-3-methylimidazolium thiocyanate], for which the viscosity reads like this: (293.15 K) 28.27 ± 0.67 mPa·s; (298.15 K) 23.79 ± 0.56 mPa·s; (303.15 K) 20.25 ± 0.48 mPa·s; (313.15 K) 15.13 ± 0.36 mPa·s; (323.15 K) 11.73 ± 0.28 mPa·s; (333.15 K) 9.36 ± 0.22 mPa·s. The viscosity is, setting by setting: (343.15 K) 7.65 ± 0.18 mPa·s; (353.15 K) 6.38 ± 0.15 mPa·s. Moreover, the mass density was 1120.02 ± 1.1 kg/m3 (293.15 K); 1116.97 ± 1.1 kg/m3 (298.15 K); 1113.91 ± 1.1 kg/m3 (303.15 K); 1107.95 ± 1.1 kg/m3 (313.15 K); 1101.84 ± 1.1 kg/m3 (323.15 K); 1095.89 ± 1 kg/m3 (333.15 K). The mass density by setting is: (343.15 K) 1089.98 ± 1 kg/m3; (353.15 K) 1084.12 ± 1 kg/m3. Further, the surface tension liquid-gas is, setting by setting: (298.15 K) 54.1 ± 0.8 mN/m; (303.15 K) 53.6 ± 0.8 mN/m; (313.15 K) 52.9 ± 0.8 mN/m; (323.15 K) 52.1 ± 0.8 mN/m.
